From patent US6525001B1, “Substituted pyrimidine and pyridine herbicides” (Mid-American Commercialization Corporation, priority 1997, dated 2003)

Legend:
Assay type in all cases: in vivo
[1] = tested on: barnyardgrass (Echinochloa crus-galli); experiment: Test E pre-/postemergence/post directed; design: key: 0 is no injury; 100 is complete control; settings: PREEMERGENCE
How it was run: (§1)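 Injury scored visually on a 0–100 scale (100 = complete control) 13 to 21 days after treatment. Test chemicals, formulated with surfactant in non-phytotoxic solvent, were applied to soil within one day of planting, to plants at two to four leaves (three to twenty cm), or as directed spray at plant base.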

[2] = tested on: Russian thistle (Salsola kali); experiment: Test E pre-/postemergence/post directed; settings: PREEMERGENCE
How it was run: as §1

[3] = tested on: Italian ryegrass (Lolium multiflorum); experiment: Test D; design: key: 0 is no effect; 10 is complete control; settings: PREEMERGENCE, Rate 62 g/ha
[4] = tested on: pitted morningglory (Ipomoea lacunosa); experiment: Test E pre-/postemergence/post directed; design: key: 0 is no injury; 100 is complete control; settings: PREEMERGENCE
How it was run: as §1

[5] = tested on: bermudagrass (Cynodon dactylon); experiment: Test E pre-/postemergence/post directed; design: key: 0 is no injury; 100 is complete control; settings: POSTEMERGENCE
How it was run: as §1

[6] = tested on: large crabgrass (Digitaria sanguinalis); experiment: Test E pre-/postemergence/post directed; design: key: 0 is no injury; 100 is complete control; settings: PREEMERGENCE, Rate 32 g/ha
How it was run: as §1

[7] = tested on: common ragweed (Ambrosia elatior); experiment: Test E pre-/postemergence/post directed; design: key: 0 is no injury; 100 is complete control; settings: PREEMERGENCE, Rate 32 g/ha
How it was run: as §1

[8] = tested on: Italian ryegrass (Lolium multiflorum); experiment: Test D; design: key: 0 is no effect; 100 is complete control; settings: PREEMERGENCE
[9] = tested on: barnyardgrass (Echinochloa crus-galli); experiment: Test E pre-/postemergence/post directed; design: key: 0 is no effect; 100 is complete control; settings: PREEMERGENCE
How it was run: as §1

Cc1cnc(-c2ccc(C(F)(F)F)cc2)nc1Cc1cccc(OC(F)(F)F)c1 [Compound 15]
Plant response rating, Barnyardgrass ([1]; Rate 32 g/ha): 0
Plant response rating, Barnyardgrass ([1]; Rate 64 g/ha): 0
Plant response rating, Russian thistle ([2]; Rate 32 g/ha): 70
Plant response rating, Russian thistle ([2]; Rate 64 g/ha): 90
Plant response rating, Russian thistle ([2]; Rate 125 g/ha): 95
Plant response rating, Russian thistle ([2]; Rate 250 g/ha): 95

CCc1cnc(-c2ccc(C(F)(F)F)cc2)nc1Cc1cccc(C(F)(F)F)c1 [Compound 22]
Plant response rating, I. Ryegrass [3]: 0

COc1cnc(-c2ccc(C(F)(F)F)cc2)nc1Cc1cccc(C(F)(F)F)c1 [Compound 23]
Plant response rating, P. morninglory ([4]; Rate 32 g/ha): 0
Plant response rating, P. morninglory ([4]; Rate 64 g/ha): 0

Cc1cnc(-n2cnc(C(F)(F)F)c2)nc1Cc1cccc(C(F)(F)F)c1 [Compound 44]
Plant response rating, Bermudagrass ([5]; Rate 125 g/ha): 0
Plant response rating, Bermudagrass ([5]; Rate 250 g/ha): 0
Plant response rating, Large crabgrass [6]: 0

CCc1cnc(-n2ccc(C(F)(F)F)n2)nc1Cc1cccc(C(F)(F)F)c1 [Compound 46]
Plant response rating, Com. ragweed [7]: 0

Cc1cnc(-c2ccc(C(F)(F)F)cc2)nc1Cc1cccc(C(F)(F)F)c1 [Example 1, 5-methyl-2-[4-(trifluoromethyl)phenyl]-4-[[3-(trifluoromethyl)phenyl]methyl]pyrimidine]
Plant response rating, I. Ryegrass ([8]; Rate 125 g/ha): 100
Plant response rating, I. Ryegrass ([8]; Rate 250 g/ha): 100

Cc1cnc(-n2ccc(C(F)(F)F)n2)nc1Cc1cccc(C(F)(F)F)c1 [Example 2, 5-methyl-4-[[3-(trifluoromethyl)phenyl]methyl]-2-[3-(trifluoromethyl)-1H-pyrazol-1-yl]pyrimidine]
Plant response rating, Barnyardgrass ([9]; Rate 125 g/ha): 100
Plant response rating, Barnyardgrass ([9]; Rate 250 g/ha): 100
